Consider one compound from PMC7226045, “Ensartinib (X-396) Effectively Modulates Pharmacokinetic Resistance Mediated by ABCB1 and ABCG2 Drug Efflux Transporters and CYP3A4 Biotransformation Enzyme” (Cancers, 2020).

For one data set, the target named is T1, ABCG2 (Homo sapiens, UniProt Q9UNQ0).
T1 construct: expressed in transfected cells; host or cells: MDCKII-ABCG2 (from Dr. Alfred Schinkel, The Netherlands Cancer Institute)
T1 sequence (Q9UNQ0 1-655): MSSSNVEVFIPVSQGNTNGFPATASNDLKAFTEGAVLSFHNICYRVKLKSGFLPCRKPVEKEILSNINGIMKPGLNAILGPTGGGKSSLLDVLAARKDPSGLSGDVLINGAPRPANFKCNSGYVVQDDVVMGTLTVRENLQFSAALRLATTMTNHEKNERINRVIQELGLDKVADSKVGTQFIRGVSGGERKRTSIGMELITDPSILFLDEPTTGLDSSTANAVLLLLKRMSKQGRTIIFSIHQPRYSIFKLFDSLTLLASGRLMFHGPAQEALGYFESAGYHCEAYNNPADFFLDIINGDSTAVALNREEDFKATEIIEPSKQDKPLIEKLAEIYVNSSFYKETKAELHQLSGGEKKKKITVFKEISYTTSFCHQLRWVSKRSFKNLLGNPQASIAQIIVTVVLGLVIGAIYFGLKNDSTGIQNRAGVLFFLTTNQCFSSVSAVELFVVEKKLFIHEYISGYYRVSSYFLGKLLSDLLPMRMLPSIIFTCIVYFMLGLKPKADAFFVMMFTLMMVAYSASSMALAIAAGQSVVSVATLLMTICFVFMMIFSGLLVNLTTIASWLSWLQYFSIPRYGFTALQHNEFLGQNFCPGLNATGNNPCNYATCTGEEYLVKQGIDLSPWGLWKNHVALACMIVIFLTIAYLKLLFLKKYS
As to the kind of experiment: MDCKII monolayer transport assay, MDCKII-ABCG2. The class given is in vitro ADME. The conditions noted are these: dog, 1 µM ensartinib, read-out: transport ratio (r), BA/AB. How it is done:
(§1) Transport assays were performed on microporous polycarbonate membrane filters (3 µm pore size, 24 mm diameter, Transwell 3414; Costar, Corning, NY, USA) using MDCKII parental as well as ABCB1-, ABCG2-, and ABCC1-overexpressing MDCKII cells. The cells were seeded at a density of 1.5 × 10^6 cells per insert and cultured to full confluence for 7 days with media exchanges on the second and fourth days. Before the start of the transport experiments, inserts were washed with 1 × PBS on both the apical and basal sides. The cells were then preincubated in Opti-MEM with or without model inhibitors (1 µM LY335979, 1 µM Ko143, or 25 µM MK-571). […] Ensartinib levels in samples were measured by UHPLC-MS/MS (see below). […]
(§2) Samples from the monolayer transport assays (10 µL) were mixed with 100 µL of acetonitrile and 100 µL of methanol, vortexed for 15 min, and centrifuged at 14,500 rpm for 3 min. […] The MS source parameters were set to the following: drying gas, 320 °C, flow rate 10 l/min; sheath gas, 400 °C at 12 l/min; nebulizer pressure 25 psi; capillary voltage 4000 V; nozzle voltage 0 V. Transitions of [M+H]^+ ions were detected using a dwell time of 150 ms, a cell acceleration of 4 V, and fragmentor voltages of 137 V for 547→357, 257 and 120 transitions (corresponding to collision energies of 16, 32, and 56 V).

The target of the next data set is T2, CYP2C8 (Homo sapiens, UniProt P10632).
T2 construct: purchased Thermo Fisher Scientific; host or cells: insect microsomal fractions
T2 sequence (P10632 whole entry): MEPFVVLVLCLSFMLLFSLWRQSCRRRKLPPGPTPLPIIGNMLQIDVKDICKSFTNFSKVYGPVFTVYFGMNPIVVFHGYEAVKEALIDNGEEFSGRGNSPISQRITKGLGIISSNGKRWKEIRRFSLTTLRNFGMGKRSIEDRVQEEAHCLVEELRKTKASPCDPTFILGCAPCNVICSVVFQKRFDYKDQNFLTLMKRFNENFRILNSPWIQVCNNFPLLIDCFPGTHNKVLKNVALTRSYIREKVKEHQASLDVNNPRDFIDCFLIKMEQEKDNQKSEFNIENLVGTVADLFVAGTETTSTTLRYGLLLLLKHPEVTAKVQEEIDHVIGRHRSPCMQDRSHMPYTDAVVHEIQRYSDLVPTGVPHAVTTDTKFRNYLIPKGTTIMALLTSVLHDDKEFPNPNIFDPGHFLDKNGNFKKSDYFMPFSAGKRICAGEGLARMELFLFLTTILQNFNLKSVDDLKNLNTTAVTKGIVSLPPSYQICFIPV
Nature of the data set: Vivid CYP screening kit, recombinant CYP2C8. The class given is biochemical. The settings on record: recombinant enzyme, 15 min incubation, absolute IC50; read-out: CYP2C8 inhibition IC50. On the procedure: CYP inhibitory assay was performed as described previously. Experiments were performed with commercial Vivid CYP screening kits containing insect microsomal fractions enriched with a specific human CYP isoform, human CYP reductase, and in some cases, human cytochrome b5. The potential inhibitory activity of ensartinib toward CYP1A2, CYP2B6, CYP2C8, CYP2C9, CYP2C19, CYP2D6, CYP3A4, and CYP3A5 (i.e., all CYP isoforms that drug regulatory authorities recommend for testing of inhibition by new molecular entities) was then examined. Experiments were performed using a kinetic mode in black 96-well plates according to the manufacturer´s instructions. Briefly, 5-point serial dilutions of ensartinib or the model inhibitor recommended by the manufacturer in buffer were transferred into the wells, then a master mix consisting of a CYP isoenzyme with an NADPH regeneration system in buffer was added. After a 10 min pre-incubation, the reaction was initiated by adding a mixture of NADP^+ and the appropriate Vivid substrate, after which fluorescence was measured at 1 min intervals for 60 min using an Infinite M200 Pro microplate reader (Tecan, Männedorf, Switzerland). The enzyme concentration and incubation interval used for data evaluation (15 min) placed the systems within the linear regions of the appropriate reaction velocity curves. […]

The nature of data set [1]: MDCKII monolayer transport assay, MDCKII-par. The settings on record: dog, MDCK, 1 µM ensartinib, read-out: transport ratio (r), BA/AB. It is filed as in vitro ADME, canine. How it is done:
as §1, §2

The test system of another data set is HepG2-EV cells. Nature of the data set: Docetaxel combination assay (MTT), HepG2-EV. It is filed as cell-based, human. The conditions noted are these: 1 µM docetaxel, <0% antagonism, =0% additivity, >0% synergism. How it is done: MTT proliferation assay was performed as described previously.
Cell viability was measured after a 48 h incubation using the MTT method as described above. […] Sensitization effects of < 0%, 0%, and >0% indicate antagonism, additivity, and synergism, respectively.

For another data set, the target named is T3, ABCC1 (Homo sapiens, UniProt P33527).
T3 construct: expressed in transfected cells; host or cells: MDCKII-ABCC1 (from Dr. Alfred Schinkel, The Netherlands Cancer Institute)
T3 sequence (P33527 whole entry): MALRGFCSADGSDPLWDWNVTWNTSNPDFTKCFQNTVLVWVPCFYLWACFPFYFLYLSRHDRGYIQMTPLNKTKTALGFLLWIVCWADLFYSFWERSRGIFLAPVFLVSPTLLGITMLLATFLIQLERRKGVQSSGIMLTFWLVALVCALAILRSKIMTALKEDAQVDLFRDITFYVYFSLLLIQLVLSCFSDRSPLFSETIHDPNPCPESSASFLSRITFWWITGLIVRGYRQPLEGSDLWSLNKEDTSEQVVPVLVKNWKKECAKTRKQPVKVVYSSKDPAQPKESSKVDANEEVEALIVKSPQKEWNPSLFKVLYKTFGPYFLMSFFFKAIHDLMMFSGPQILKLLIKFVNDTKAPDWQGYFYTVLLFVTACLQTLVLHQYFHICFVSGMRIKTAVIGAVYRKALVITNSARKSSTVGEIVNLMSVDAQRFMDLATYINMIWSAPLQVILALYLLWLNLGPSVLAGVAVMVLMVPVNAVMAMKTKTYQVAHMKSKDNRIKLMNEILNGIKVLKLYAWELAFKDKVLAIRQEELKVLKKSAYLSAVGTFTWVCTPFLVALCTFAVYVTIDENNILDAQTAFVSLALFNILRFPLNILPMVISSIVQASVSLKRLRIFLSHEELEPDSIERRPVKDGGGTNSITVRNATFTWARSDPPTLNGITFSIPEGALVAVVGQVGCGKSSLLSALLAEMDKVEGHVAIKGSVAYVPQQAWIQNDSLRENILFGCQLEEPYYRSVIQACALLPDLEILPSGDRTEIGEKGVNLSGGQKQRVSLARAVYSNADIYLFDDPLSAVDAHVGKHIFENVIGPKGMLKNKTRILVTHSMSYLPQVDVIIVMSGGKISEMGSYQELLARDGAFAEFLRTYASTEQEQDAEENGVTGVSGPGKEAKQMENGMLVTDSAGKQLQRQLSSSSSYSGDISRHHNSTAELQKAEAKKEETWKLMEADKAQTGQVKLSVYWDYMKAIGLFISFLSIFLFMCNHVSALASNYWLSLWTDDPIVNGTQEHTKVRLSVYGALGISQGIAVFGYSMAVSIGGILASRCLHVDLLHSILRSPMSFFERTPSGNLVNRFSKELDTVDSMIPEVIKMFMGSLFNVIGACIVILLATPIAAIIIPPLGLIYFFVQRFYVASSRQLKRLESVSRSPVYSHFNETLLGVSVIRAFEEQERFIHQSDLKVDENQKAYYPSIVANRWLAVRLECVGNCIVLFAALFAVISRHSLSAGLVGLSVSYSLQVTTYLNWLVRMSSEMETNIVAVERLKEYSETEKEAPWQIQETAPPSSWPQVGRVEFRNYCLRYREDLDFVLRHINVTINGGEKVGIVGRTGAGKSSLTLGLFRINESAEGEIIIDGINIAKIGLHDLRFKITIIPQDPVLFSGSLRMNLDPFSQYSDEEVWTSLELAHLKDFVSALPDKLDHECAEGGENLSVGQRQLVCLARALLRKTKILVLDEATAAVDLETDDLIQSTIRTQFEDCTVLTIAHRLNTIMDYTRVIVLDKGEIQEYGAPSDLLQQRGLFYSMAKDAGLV
As to the kind of experiment: MDCKII monolayer transport assay, MDCKII-ABCC1. The class given is in vitro ADME. The conditions noted are these: dog, 1 µM ensartinib, read-out: transport ratio (r), BA/AB. On the procedure: as §1, §2

pIC50: −log10 of the molar value.

A word on the pIC50: it is −log10 of the IC50, conventionally taken in molar units. Consider `C[C@@H]1CN(C(=O)c2ccc(NC(=O)c3cc(O[C@H](C)c4c(Cl)ccc(F)c4Cl)c(N)nn3)cc2)C[C@H](C)N1` [ensartinib, Ensartinib], for which the figures for the efflux ratio at 4 h, 1 µM (on ABCG2; in data set [1]; on ABCC1) were 1.15, 1.01 and 1.29, respectively. The pIC50 at CYP2C8 is 4.69. Further, the “sensitization effect of combination with docetaxel” value with HepG2-EV cells is “antagonistic”.
